From patent US9708259B2 (Hoffmann-La Roche Inc., priority 2013, dated 2017)
Residue numbers refer to the chain shown, from its start. Where two headings read alike, the source gives them in different places.

Columns and labels:
[1] = molecular target: T1, human M1 (Homo sapiens, UniProt P11229); assay: M1 PAM assay (FLIPR intracellular calcium), human M1; assay type: cell-based
T1 construct: expressed in transfected cells; host or cells: CHO cells
T1 sequence (P11229 1-460): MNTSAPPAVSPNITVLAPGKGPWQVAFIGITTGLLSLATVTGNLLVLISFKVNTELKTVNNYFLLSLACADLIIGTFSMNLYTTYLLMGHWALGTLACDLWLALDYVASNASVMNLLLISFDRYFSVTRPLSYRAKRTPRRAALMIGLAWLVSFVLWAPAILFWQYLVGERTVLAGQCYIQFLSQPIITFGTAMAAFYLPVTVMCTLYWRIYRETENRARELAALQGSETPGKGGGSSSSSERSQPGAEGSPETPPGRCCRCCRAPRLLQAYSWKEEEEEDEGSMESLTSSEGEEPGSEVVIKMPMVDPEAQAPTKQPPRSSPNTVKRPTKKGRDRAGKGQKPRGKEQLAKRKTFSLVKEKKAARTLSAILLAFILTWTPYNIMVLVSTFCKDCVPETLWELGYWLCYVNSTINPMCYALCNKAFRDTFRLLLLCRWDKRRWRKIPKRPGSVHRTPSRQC
Description: The assay study the effect of several concentrations of test compounds on basal or acetylcholine-stimulated Ca^2+ levels using FLIPR.
CHO human M1 are plated the day before the experiments at 2×10^5 cells/ml in PDL BioCoat 96 well black/clear plate (Becton 35 4640). The cells are grown at 37° C. and 5% CO2 in the following medium: F12 Nut Mix (Gibco 21765), 10% FCS heat inactivated (GIBCO 16000-044), 1% Pen Strep (Gibco,15140) and 200 μg/ml Geneticin (Gibco 11811). On the day of the experiment, the medium was removed and replaced by […] of dye loading buffer containing Hanks Balanced Salt solution (HBSS, 14065-049, Gibco) with 20 mM HEPES (Gibco 15630-056), 2 mM Probenicid (Sigma P8761), […] ester (Molecular Probes F-14202), 10% Pluronic acid Molecular Probes P-3000) pH=7.4 and incubated at 37° C. After 60 minutes extracellular dye was removed and the cells were washed five times with FLIPR buffer containing HBSS (Gibco 14065-049) with 20 mM HEPES (Gibco, 15630-056), 2 mM Probenicid (Sigma P8761) pre-warmed at 37° C. using and Ebml cell washer leaving […] of FLIPR buffer in each well. The cell plate and the diluted compounds (1% DMSO final concentration) are placed on the platform of the FLIPR and the door closed. A signal test to check background fluorescence and basal fluorescence signal is performed. Laser intensity is adjusted if necessary. Two minutes preincubation with the diluted test compounds is provide to determine any agonist activity on the M1 receptor by comparison to 30 nM Acetylcholine control. In order to determine any modulator activity the diluted compounds were added to cells and after two minutes preincubation, the EC20 of acetylcholine is added followed by another two minutes preincubation before the measurement of intracellular Ca^2+ with a FLIPR (Molecular Devices).

[2] = molecular target: T2, ratM1 (Rattus norvegicus, UniProt P08482); assay: M1 PAM assay (FLIPR intracellular calcium), rat M1; assay type: cell-based
T2 construct: expressed in transfected cells; host or cells: CHO cells (stated generally for the assay, not specifically for rat M1)
T2 sequence (P08482 1-460): T1 sequence (P11229 1-460) with A5V, T254S, P309S, R320K, A337G, I413V

[3] = CHO human M1 cells, FLIPR Ca2+, with EC20 of acetylcholine, first value of the cell, read-out: hM1 EC50
[4] = rat M1, FLIPR Ca2+, second value of the cell, read-out: ratM1 EC50

Compound | EC50 [1, 3] [nM] | EC50 [2, 4] [nM] | EC50 [1] [nM] | EC50 [2] [nM]
Cn1cc(-c2ccc(Cn3cc(CC(=O)N[C@H]4CCOC[C@@H]4O)c4c(F)cccc43)c(F)c2)cn1 [Example 92, 2-[4-Fluoro-1-[[2-fluoro-4-(1-methylpyrazol-4-yl)phenyl]methyl]indol-3-yl]-N-[(3R,4S)-3-hydroxyoxan-4-yl]acetamide] | 35 | 57 |  | 
Cn1ncc2cc(Cn3cc(C(=O)N[C@H]4CCCC[C@@H]4O)c4c(F)cccc43)ccc21 [Example 37, 4-fluoro-N-((1S,2S)-2-hydroxycyclohexyl)-1-((1-methyl-1H-indazol-5-yl)methyl)-1H-indole-3-carboxamide] |  |  | 43.8 | 39.5
Cc1ccc(F)c2c(C(=O)NC3CCCOC3)cn(Cc3ccc(-c4cnn(C)c4)cc3)c12 (centres unmarked) [Example 48, 4-fluoro-7-methyl-1-(4-(1-methyl-1H-pyrazol-4-yl)benzyl)-N-(tetrahydro-2H-pyran-3-yl)-1H-indole-3-carboxamide] | 251 | 528 |  | 
COc1ccc(F)c2c(C(=O)N[C@H]3CCCC[C@@H]3O)cn(Cc3ccc(-c4cnn(C)c4)cc3)c12 [Example 148, 4-fluoro-N-((1S,2S)-2-hydroxycyclohexyl)-7-methoxy-1-(4-(1-methyl-1H-pyrazol-4-yl)benzyl)-1H-indole-3-carboxamide] | 84 | 139 |  | 
Cn1ncc2cc(Cn3cc(C(=O)N[C@H]4CCOC[C@@H]4O)c4c(F)cccc43)ccc21 (single isomer, unassigned) [Example 52, 4-fluoro-N-((3R,4S) or (3S,4R)-3-hydroxytetrahydro-2H-pyran-4-yl)-1-((1-methyl-1H-indazol-5-yl)methyl)-1H-indole-3-carboxamide] |  |  | 17.9 | 27
Cc1cn(-c2ccc(Cn3cc(C(=O)N[C@H]4CCOC[C@@H]4O)c4c(F)cccc43)cc2)cn1 (single isomer, unassigned) [Example 51, 4-fluoro-N-((3R,4S) or (3S,4R)-3-hydroxytetrahydro-2H-pyran-4-yl)-1-(4-(4-methyl-1H-imidazol-1-yl)benzyl)-1H-indole-3-carboxamide] | 12.3 | 11.2 |  | 
O=C(N[C@H]1CCCC[C@@H]1O)c1cn(Cc2ccc(N3CCCC3)cc2)c2cccc(F)c12 [Example 161, 4-fluoro-N-((1S,2S)-2-hydroxycyclohexyl)-1-(4-(pyrrolidin-1-yl)benzyl)-1H-indole-3-carboxamide] | 121 | 307 |  | 
O=C(N[C@H]1CCCC[C@@H]1O)c1cn(Cc2ccc(-c3ccccc3)nc2)c2cccc(F)c12 [Example 131, 4-fluoro-N-((1S,2S)-2-hydroxycyclohexyl)-1-((6-phenylpyridin-3-yl)methyl)-1H-indole-3-carboxamide] | 36 | 152 |  | 
Cn1cc(-c2ccc(Cn3cc(C(=O)N[C@H]4CCC[C@@H]4O)c4c(F)cccc43)c(F)c2)cn1 [Example 17, 4-Fluoro-1-(2-fluoro-4-(1-methyl-1H-pyrazol-4-yl)benzyl)-N-((1S,2S)-2-hydroxycyclopentyl)-1H-indole-3-carboxamide] | 100 | 169 |  | 
Cc1cn(-c2ccc(Cn3cc(C(=O)N[C@H]4CCCC[C@@H]4O)c4c(F)cccc43)cc2)cn1 [Example 36, 4-fluoro-N-((1S,2S)-2-hydroxycyclohexyl)-1-(4-(4-methyl-1H-imidazol-1-yl)benzyl)-1H-indole-3-carboxamide] | 15.5 | 25.9 |  | 
O=C(N[C@H]1CCCC[C@@H]1O)c1cn(Cc2ccc(-c3ncccn3)cc2)c2cccc(F)c12 [Example 135, 4-fluoro-N-((1S,2S)-2-hydroxycyclohexyl)-1-(4-(pyrimidin-2-yl)benzyl)-1H-indole-3-carboxamide] | 97 | 384 |  | 
Cc1cn(-c2ccc(Cn3cc(C(=O)N[C@H]4CCCC[C@@H]4O)c4c(F)c(F)ccc43)cc2)cn1 [Example 60, 4,5-difluoro-N-((1S,2S)-2-hydroxycyclohexyl)-1-(4-(4-methyl-1H-imidazol-1-yl)benzyl)-1H-indole-3-carboxamide] | 101 | 183 |  | 
CNC(=O)c1ccc(Cn2cc(C(=O)NC3CCOCC3)c3c(F)cccc32)cn1 [Example 147, 4-fluoro-1-((6-(methylcarbamoyl)pyridin-3-yl)methyl)-N-(tetrahydro-2H-pyran-4-yl)-1H-indole-3-carboxamide] | 197 | 323 |  | 
CNC(=O)c1ccc(Cn2cc(C(=O)N[C@H]3CCCC[C@@H]3O)c3c(F)cccc32)cn1 [Example 87, 4-fluoro-N-((1S,2S)-2-hydroxycyclohexyl)-1-((6-(methylcarbamoyl)pyridin-3-yl)methyl)-1H-indole-3-carboxamide] | 73.4 | 120 |  | 
Cn1cc(-c2ccc(Cn3cc(C(=O)NC4CCOCC4)c4c(F)ccc(F)c43)c(F)c2)cn1 [Example 96, 4,7-difluoro-1-(2-fluoro-4-(1-methyl-1H-pyrazol-4-yl)benzyl)-N-(tetrahydro-2H-pyran-4-yl)-1H-indole-3-carboxamide] | 28 | 73 |  | 
O=C(N[C@H]1CCCC[C@@H]1O)c1cn(Cc2ccc(F)cc2)c2cccc(F)c12 [Example 42, 4-fluoro-1-(4-fluorobenzyl)-N-((1S,2S)-2-hydroxycyclohexyl)-1H-indole-3-carboxamide] |  |  | 110 | 200
CNC(=O)c1ccc(Cn2cc(C(=O)NCC3CC3)c3c(F)cccc32)cc1 [Example 116, N-(cyclopropylmethyl)-4-fluoro-1-[[4-(methylcarbamoyl)phenyl]methyl]indole-3-carboxamide] | 74 | 320 |  | 
Cn1cnc2cc(Cn3cc(C(=O)N[C@H]4CCCC[C@@H]4O)c4c(F)cccc43)ccc21 [Example 56, 4-fluoro-N-((1S,2S)-2-hydroxycyclohexyl)-1-((1-methyl-1H-benzo[d]yridine-5-yl)methyl)-1H-indole-3-carboxamide] |  |  | 136 | 285
Cn1cc(-c2ccc(Cn3cc(C(=O)N[C@H]4CCCC[C@@H]4O)c4c(F)c(F)c(F)c(F)c43)c(F)c2)cn1 [Example 26, 4,5,6,7-Tetrafluoro-1-(2-fluoro-4-(1-methyl-1H-pyrazol-4-yl)benzyl)-N-((1S,2S)-2-hydroxycyclohexyl)-1H-indole-3-carboxamide] | 80.6 | 201 |  | 
Cn1cc(-c2ccc(Cn3cc(C(=O)N[C@H]4CCCC[C@@H]4O)c4c(F)c(F)ccc43)cn2)cn1 [Example 58, 4,5-difluoro-N-((1S,2S)-2-hydroxycyclohexyl)-1-((6-(1-methyl-1H-pyrazol-4-yl)pyridine-3-yl)methyl)-1H-indole-3-carboxamide] | 174 | 10000 |  | 
CNC(=O)c1ccc(Cn2cc(C(=O)NC3CCCCC3(F)F)c3c(F)cccc32)cc1 (centres unmarked) [Example 120, N-(2,2-difluorocyclohexyl)-4-fluoro-1-[[4-(methylcarbamoyl)phenyl]methyl]indole-3-carboxamide] | 15 | 32 |  | 
O=C(N[C@H]1CCOC[C@@H]1O)c1cn(Cc2ccc(-c3nccs3)cc2)c2cccc(F)c12 [Example 79, 4-fluoro-N-((3R,4S)-3-hydroxytetrahydro-2H-pyran-4-yl)-1-(4-(thiazol-2-yl)benzyl)-1H-indole-3-carboxamide] | 16.8 | 25.6 |  | 
